According to ChEMBL document CHEMBL1201862, “PubChem BioAssay data set” (2004):
Activity calls are given as the source filed them.

Tests used:
[1] = biological target: Cytochrome P450 2D6 (Homo sapiens, UniProt P10635);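 also: CYP2D6 member of a cytochrome P450 panel assay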
[2] = system: HeLa; assay: ATP-based viability loss in HeLa cells – cell-based, CellTiter-Glo luminescence, cherry-pick samples, cytotoxicity control for MITF activator project, dose response (AID 540259); assay type: functional; conditions: Homo sapiens
[3] = biological target: Cytochrome P450 2C19 (Homo sapiens, UniProt P33261); assay: Cytochrome panel assay with activity outcomes. Panel member name: p450-cyp2c19 Compounds with AC50 equal or less than 10 uM are considered active; assay type: functional
[4] = biological target: T1, SUMO-activating enzyme (Homo sapiens, UniProt Q9UBT2); assay: blockers of UBC9-mediated SUMO conjugation – biochemical, AlphaScreen, SUMOylation inhibitor project, confirmation (AID 2018); assay type: functional
[5] = biological target: T1, SUMO-activating enzyme; assay: blockers of SAE1/SAE2–UBC9 SUMO transfer – biochemical, HTRF, uHTS, primary screen (AID 2006); assay type: protein-complex assay
[6] = system: INS1; assay: INS-1E survival protection against cytokine death – cell-based, luminescence, retest, dose response (AID 449756); assay type: functional; conditions: Rattus norvegicus;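 also: cell death triggered by IL-1 beta plus TNF-alpha plus IFN-gamma mixture; protective hits raise ATP signal compared with cytokine alone wells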
[7] = biological target: Protein Wnt-3a (Mus musculus, UniProt P27467); assay: antagonism of Wnt3a pathway luciferase reporter – Wnt-LIGHT cells, luminescence, selectivity assay for Gli-SUFU antagonist project, dose response (AID 651570); assay type: functional; conditions: read-out: IC50_Mean;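 also: Wnt-LIGHT reporter cells stimulated with conditioned medium from Wnt3a-producing cells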
[8] = biological target: T2, High affinity choline transporter 1 (Homo sapiens, UniProt Q9GZV3); assay: human choline transporter blockers, potency – cell-based, 5-point CRC, membrane potential dye, dose response (AID 504840); assay type: functional
T2 sequence (Q9GZV3 whole entry): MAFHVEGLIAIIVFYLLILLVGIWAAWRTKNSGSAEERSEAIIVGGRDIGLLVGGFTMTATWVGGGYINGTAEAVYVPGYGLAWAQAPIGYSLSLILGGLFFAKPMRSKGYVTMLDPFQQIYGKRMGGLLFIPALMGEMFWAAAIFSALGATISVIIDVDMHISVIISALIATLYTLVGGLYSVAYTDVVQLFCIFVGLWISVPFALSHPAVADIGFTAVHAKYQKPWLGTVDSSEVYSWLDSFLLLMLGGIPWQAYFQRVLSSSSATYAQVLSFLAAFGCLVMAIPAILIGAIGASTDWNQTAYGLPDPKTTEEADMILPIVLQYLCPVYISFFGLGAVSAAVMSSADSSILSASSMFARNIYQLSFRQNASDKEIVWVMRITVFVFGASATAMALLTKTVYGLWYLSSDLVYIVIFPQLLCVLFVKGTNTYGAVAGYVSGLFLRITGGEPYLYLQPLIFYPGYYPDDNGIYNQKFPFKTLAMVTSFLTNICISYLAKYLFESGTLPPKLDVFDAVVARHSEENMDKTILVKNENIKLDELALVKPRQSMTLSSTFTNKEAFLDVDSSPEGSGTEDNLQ

[9] = biological target: T2, High affinity choline transporter 1; assay: human choline transporter blockers, potency – cell-based, 10-point CRC, membrane potential dye, dose response (AID 588401); assay type: functional;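 also: membrane potential dye fluorescence of choline-evoked depolarization via CHT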
[10] = viability of uninfected HEp-2 cells – cell-based, HTS, cytotoxicity control for RSV inhibitor project, dose response (AID 2410); assay type: functional; conditions: human respiratory syncytial virus
[11] = Luminescence Cell-Based Dose Confirmation HTS to Identify Activators of 5'UTR Stem-Loop Driven Alpha-Synuclein mRNA Translation in H4 Neuroglioblastoma Cells. [Related pubchem assays: 1829 (Project Summary), 1814 (Primary HTS)]; assay type: functional
[12] = Luminescence Cell-Based Dose Response HTS to Identify Activators of Luciferase Translation or Activity in H4 […] Cells. [Related pubchem assays: 1829 (Project Summary), 1814 (Primary HTS)]; assay type: functional
[13] = system: H4; assay: Luminescence Cell-Based Dose Response HTS to Identify Activators of 5'UTR Stem-Loop Driven Prion Protein mRNA Translation in H4 Neuroglioblastoma Cells. [Related pubchem assays: 1829 (Project Summary), 1814 (Primary HTS)]; assay type: functional; conditions: Homo sapiens
[14] = biological target: Induced myeloid leukemia cell differentiation protein Mcl-1 (Homo sapiens, UniProt Q07820); assay type: functional
[15] = Vero E6 cell cytotoxicity, dose response, cytotoxicity control for non-replicating M. tuberculosis project, secondary assay (AID 492998); assay type: functional, VeroE6; conditions: Vero C1008
[16] = cells; assay type: functional
[17] = biological target: T3, Rac GTPase-activating protein 1 (Homo sapiens, UniProt Q9H0H5); assay: blockers of MgcRacGAP-driven Rac1 GTP hydrolysis – biochemical, ADP Hunter fluorescence, primary and confirmatory, confirmation (AID 624330); assay type: functional
T3 sequence (Q9H0H5 whole entry): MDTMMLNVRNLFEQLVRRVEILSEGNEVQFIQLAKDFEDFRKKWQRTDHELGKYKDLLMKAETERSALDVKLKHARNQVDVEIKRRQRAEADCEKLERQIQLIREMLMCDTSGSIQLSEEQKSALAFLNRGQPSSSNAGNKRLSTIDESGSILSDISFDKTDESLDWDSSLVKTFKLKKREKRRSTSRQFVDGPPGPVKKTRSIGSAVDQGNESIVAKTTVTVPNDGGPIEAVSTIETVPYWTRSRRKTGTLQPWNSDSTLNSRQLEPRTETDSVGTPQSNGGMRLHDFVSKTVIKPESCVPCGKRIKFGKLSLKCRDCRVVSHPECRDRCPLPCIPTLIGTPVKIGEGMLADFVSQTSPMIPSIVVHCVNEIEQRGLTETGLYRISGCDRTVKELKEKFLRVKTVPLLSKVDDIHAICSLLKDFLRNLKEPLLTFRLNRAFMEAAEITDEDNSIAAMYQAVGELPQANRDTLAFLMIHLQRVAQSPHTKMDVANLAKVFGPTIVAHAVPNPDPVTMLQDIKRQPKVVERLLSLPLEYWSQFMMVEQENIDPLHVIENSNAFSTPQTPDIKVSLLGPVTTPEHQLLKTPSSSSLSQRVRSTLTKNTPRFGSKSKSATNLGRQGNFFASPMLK

[18] = biological target: T4, Probable nicotinate-nucleotide adenylyltransferase (Staphylococcus aureus (strain N315), UniProt P65502); assay type: functional, Staphylococcus aureus subsp. aureus N315;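 as to IC50 Mean: confirmatory dose-response retesting of NadD inhibitor hits first found in an ultra-high-throughput screen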
[19] = biological target: T4, Probable nicotinate-nucleotide adenylyltransferase; assay type: functional, Staphylococcus aureus subsp. aureus N315; conditions: read-out: IC50_Mean
[20] = biological target: T5, Cytochrome P450 1A2 (Homo sapiens, UniProt P05177);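 also: PubChem cytochrome P450 panel assay, CYP1A2 panel member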
T5 sequence (P05177 whole entry): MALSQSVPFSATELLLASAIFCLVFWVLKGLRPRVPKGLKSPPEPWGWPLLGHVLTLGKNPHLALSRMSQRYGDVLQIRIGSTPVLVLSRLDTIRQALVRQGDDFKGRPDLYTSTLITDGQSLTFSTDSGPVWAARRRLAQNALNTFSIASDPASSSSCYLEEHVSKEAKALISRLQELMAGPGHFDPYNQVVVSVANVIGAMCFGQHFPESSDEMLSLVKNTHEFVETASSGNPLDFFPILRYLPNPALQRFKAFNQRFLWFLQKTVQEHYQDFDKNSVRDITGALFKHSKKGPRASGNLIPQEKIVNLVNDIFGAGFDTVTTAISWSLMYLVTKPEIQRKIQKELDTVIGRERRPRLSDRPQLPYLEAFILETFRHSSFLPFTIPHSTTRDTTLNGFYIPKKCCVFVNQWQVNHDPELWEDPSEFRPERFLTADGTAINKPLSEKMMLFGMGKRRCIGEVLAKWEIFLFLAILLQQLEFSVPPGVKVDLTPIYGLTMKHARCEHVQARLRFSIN

[21] = biological target: Cytochrome P450 2C9 (Homo sapiens, UniProt P11712)
[22] = system: Streptococcus sp. 'group A'; assay: Streptococcus pyogenes SK(-)GAS viability under kanamycin – luminescence, BacTiterGlo, confirmation, counter-screen for streptokinase expression inhibitor project, dose response (AID 1900); assay type: functional, organism-based
[23] = biological target: T6, Streptokinase A (Streptococcus pyogenes serotype M1, UniProt P10520); assay: viability-normalized secreted streptokinase activity reduction – plasminogen activation absorbance, OD405, dose response (AID 1914); assay type: functional, Streptococcus pyogenes M1 GAS;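 also: secreted streptokinase activity via plasminogen activation per viability signal from cell pellet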
T6 sequence (P10520 whole entry): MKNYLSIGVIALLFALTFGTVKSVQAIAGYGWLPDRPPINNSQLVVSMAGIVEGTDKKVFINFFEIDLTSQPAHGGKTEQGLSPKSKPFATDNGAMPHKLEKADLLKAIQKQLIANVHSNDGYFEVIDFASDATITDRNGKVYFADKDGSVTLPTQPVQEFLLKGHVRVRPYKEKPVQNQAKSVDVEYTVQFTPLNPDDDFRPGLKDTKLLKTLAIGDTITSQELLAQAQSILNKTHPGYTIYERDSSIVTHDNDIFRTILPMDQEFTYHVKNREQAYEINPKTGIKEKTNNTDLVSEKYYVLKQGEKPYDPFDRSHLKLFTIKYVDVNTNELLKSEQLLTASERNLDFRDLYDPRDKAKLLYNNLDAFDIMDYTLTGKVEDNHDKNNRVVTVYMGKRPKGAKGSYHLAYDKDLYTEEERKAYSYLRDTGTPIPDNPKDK

[24] = system: Streptococcus; assay: GAS UMAA2166 growth inhibition – luminescence, BacTiterGlo, counter-screen for streptokinase expression inhibitor project, dose response (AID 1915); assay type: functional, organism-based;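 also: potency for reduction of bacterial viability or growth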
[25] = THP-1 cell cytotoxicity, dose response, cytotoxicity control for non-replicating M. tuberculosis project (AID 489025); assay type: functional
[26] = system: Vero; assay: cells; assay type: functional, cell-based; conditions: Chlorocebus sabaeus
[27] = cells
[28] = biological target: T7, Microphthalmia-associated transcription factor (Homo sapiens, UniProt O75030); assay: reducers of TRPM1 reporter luminescence, concentration series – cell-based, SK-MEL-5, cherry-picked, set 3, MITF inhibitor project, dose response (AID 493073); assay type: functional;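 also: SK-MEL-5 melanoma cells with luciferase driven by the MITF target TRPM1 promoter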
T7 sequence (O75030 whole entry): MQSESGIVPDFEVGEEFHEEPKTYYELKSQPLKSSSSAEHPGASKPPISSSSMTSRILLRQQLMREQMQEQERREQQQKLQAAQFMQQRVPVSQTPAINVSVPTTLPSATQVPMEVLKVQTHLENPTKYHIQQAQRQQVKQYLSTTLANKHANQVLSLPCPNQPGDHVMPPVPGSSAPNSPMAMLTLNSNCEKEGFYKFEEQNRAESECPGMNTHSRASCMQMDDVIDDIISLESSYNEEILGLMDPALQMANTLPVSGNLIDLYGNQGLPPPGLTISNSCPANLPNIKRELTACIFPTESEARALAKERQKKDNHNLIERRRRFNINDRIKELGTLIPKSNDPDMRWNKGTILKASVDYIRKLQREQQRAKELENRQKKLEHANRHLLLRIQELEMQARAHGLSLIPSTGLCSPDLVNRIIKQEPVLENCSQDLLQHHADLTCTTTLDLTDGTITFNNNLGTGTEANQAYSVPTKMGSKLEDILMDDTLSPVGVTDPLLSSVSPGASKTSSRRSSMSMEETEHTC

[29] = system: Vero; assay: cells; assay type: functional; conditions: Chlorocebus sabaeus

Sequence of Cytochrome P450 2D6 (P10635 whole entry): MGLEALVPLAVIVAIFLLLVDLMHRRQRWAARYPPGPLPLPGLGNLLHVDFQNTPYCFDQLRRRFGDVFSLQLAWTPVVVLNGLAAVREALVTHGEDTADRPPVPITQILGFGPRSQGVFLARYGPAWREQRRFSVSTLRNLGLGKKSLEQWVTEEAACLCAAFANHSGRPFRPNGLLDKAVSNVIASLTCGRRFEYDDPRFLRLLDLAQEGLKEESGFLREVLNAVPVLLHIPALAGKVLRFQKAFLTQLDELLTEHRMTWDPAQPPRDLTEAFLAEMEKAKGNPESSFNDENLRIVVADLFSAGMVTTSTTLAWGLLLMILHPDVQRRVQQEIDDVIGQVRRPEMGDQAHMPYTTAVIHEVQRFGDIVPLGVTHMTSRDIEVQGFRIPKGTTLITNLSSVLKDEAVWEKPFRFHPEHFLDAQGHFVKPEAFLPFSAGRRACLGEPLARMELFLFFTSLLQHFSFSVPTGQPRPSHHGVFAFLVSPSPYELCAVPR
T1 sequence (Q9UBE0 whole entry): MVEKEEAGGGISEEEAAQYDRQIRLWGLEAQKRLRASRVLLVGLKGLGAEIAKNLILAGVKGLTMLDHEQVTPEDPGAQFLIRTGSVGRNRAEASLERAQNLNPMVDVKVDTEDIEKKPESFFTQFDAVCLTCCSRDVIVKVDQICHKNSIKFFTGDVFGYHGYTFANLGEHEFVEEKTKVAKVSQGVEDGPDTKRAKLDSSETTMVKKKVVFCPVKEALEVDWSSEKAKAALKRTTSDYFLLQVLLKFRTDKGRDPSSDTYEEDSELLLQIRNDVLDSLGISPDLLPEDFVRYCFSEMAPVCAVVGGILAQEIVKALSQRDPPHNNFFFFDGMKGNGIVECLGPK
T1 sequence (Q9UBT2 whole entry): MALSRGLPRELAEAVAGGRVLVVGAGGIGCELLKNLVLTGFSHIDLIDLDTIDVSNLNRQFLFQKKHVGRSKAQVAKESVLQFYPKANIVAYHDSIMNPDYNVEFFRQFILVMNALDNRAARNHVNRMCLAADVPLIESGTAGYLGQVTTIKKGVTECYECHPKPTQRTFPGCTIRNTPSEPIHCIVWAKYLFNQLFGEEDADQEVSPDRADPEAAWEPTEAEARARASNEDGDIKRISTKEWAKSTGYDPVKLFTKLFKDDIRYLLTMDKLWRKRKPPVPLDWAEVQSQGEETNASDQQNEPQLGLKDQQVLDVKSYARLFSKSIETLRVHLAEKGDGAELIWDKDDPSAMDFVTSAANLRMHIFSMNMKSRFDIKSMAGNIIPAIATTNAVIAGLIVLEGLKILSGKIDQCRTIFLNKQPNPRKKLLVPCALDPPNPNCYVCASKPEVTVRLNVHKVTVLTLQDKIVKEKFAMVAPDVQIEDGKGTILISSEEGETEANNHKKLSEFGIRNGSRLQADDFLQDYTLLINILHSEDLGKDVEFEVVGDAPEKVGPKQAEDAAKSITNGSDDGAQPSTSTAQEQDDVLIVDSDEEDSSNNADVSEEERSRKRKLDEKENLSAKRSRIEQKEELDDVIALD
T4 sequence (P65502 whole entry): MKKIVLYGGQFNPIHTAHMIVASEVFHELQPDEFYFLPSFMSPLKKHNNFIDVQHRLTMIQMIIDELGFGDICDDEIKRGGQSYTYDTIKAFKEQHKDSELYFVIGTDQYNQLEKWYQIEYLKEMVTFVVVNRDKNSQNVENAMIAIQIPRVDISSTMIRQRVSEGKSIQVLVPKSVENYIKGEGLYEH
Sequence of Cytochrome P450 2C19 (P33261 whole entry): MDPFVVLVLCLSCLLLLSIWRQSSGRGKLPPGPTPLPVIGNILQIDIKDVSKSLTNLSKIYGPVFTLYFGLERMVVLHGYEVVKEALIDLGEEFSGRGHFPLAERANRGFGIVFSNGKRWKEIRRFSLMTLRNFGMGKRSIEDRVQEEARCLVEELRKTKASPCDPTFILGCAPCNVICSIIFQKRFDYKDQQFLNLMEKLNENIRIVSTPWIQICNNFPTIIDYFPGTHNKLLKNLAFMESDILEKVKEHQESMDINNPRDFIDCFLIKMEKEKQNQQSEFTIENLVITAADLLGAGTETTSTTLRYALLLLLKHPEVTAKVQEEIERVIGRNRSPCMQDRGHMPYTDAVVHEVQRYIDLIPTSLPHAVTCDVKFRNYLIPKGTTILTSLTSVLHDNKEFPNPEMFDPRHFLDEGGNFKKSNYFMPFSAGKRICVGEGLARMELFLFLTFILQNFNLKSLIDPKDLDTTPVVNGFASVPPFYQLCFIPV
Sequence of Induced myeloid leukemia cell differentiation protein Mcl-1 (Q07820 whole entry): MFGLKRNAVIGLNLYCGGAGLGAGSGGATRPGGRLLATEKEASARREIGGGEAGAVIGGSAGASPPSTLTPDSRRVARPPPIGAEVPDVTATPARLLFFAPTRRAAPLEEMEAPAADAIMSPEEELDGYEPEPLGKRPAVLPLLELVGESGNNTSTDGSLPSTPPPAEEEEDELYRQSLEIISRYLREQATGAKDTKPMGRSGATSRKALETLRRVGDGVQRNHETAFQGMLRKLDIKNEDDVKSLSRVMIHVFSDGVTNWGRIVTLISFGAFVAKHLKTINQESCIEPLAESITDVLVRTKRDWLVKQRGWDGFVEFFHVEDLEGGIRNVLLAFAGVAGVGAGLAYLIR
Sequence of Cytochrome P450 2C9 (P11712 whole entry): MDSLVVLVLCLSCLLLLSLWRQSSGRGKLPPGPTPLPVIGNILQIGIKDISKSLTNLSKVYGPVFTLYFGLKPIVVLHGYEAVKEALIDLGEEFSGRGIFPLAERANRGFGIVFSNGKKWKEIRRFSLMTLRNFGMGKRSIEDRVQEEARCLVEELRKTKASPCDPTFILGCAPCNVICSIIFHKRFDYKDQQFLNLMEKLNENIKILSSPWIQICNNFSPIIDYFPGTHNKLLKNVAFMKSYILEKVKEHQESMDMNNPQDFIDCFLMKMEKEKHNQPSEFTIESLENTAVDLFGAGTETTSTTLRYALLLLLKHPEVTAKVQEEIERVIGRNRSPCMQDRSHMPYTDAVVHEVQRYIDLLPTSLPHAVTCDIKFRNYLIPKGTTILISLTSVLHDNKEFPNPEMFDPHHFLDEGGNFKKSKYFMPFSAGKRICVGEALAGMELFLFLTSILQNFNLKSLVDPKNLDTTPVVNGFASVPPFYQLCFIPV
Sequence of Protein Wnt-3a (P27467 whole entry): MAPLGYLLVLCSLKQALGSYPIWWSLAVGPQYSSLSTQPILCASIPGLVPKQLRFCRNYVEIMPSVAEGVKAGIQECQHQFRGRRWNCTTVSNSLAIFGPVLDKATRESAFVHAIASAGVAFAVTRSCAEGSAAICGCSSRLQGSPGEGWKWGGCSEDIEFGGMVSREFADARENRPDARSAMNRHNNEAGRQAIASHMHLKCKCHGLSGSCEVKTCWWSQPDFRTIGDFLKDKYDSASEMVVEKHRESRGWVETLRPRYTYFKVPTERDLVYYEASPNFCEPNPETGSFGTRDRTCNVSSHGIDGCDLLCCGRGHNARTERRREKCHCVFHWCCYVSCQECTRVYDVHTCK

O=C(O)c1nn(-c2ccccc2)nc1-c1nn(-c2ccccc2)nc1C(=O)O
AC50 [1]: inconclusive

CCNc1nc(N)nc(Oc2ccc(C(=O)OC)cc2)n1
AC50 [2]: 245 µM (active)

C[C@@H](c1ccccc1)N1C(=O)[C@H]2[C@@H]3[C@H](O)C=CC(=O)[C@H]3CC[C@H]2C1=O
AC50 [3]: inconclusive
AC50 [1]: inconclusive

COc1ccc(C(=O)Nc2ccc(-c3nnn(CC(=O)N4CCN(C(=O)c5ccco5)CC4)n3)cc2)cc1
IC50 [4]: 13 µM (active)
IC50 [5]: 30 µM (active)

CCCCSc1nc2sc3c(c2c(=O)n1-c1ccc(C)cc1)CCN(C)C3
AC50 [6]: 10.1 µM (active)
IC50 [7]: 10.8 µM (active)

COc1cccc(CCNC(=O)c2ccc(OC)c(OC3CCN(C(C)C)CC3)c2)c1
IC50 [8]: 5 µM (active)
IC50 [9]: 3.98 µM (active)

CCN(CC)c1ccc(NC(=O)CSc2nc(C3CC3)nc3ccccc23)cc1C
IC50 [4]: 7.43 µM (active)
IC50 [5]: 27 µM (active)

COc1ccccc1N1CCN(C2=Nc3cccc4cccc2c34)CC1
CC50 [10]: 25.4 µM (active)
EC50 [11]: 43.3 µM (active)
EC50 [12]: 19.1 µM (active)
EC50 [13]: 18.5 µM (active)
AC50 [2]: 27.1 µM (active)

COc1cc(NCCC(=O)c2cccs2)c(OC)cc1Cl
IC50 [14]: 4.38 µM (not active)
CC50 [15]: > 20 µM (active)
IC50 [16]: 8.46 µM (active)
IC50 [17]: 58.1 µM (active)

O=C(Nc1ccc(N2CCCC2)cc1)c1cc(Br)ccc1Cl
IC50 [18]: 21.7 µM (active)
IC50 [19]: 35.9 µM (active)

Oc1ccc(N=Nc2ccccc2)cc1
AC50 [2]: 98.1 µM (active)
IC50 [17]: 70.9 µM (active)

Cc1cc(C)nc(Nc2n[nH]c(-c3cccc4ccccc34)n2)n1
AC50 ([3]; read-out: AC50): 17.8 µM (inconclusive)
AC50 [1]: inconclusive

COc1ccc(/C=N/C(CO)C(O)c2ccc([N+](=O)[O-])cc2)cc1 (configuration not stated)
AC50 [20]: 20 µM (inconclusive)
AC50 [21]: 2.51 µM (inconclusive)
AC50 [1]: inconclusive

CCCCCC/C(=N/O)c1ccccn1
EC50 [22]: 7.92 µM (active)
EC50 [23]: > 150 µM (not active)
EC50 [24]: 40 µM (active)
CC50 [25]: 20.2 µM (active)
CC50 [15]: 15.2 µM (active)
IC50 [16]: 6.74 µM (active)

C/C(N)=C(/C#N)C(=O)COC(=O)c1cc(C)n(-c2ccc(F)cc2)c1C
CC50 [10]: 18.8 µM (active)
IC50 [26]: 8.93 µM (active)
IC50 [27]: 29.9 µM (active)

CCCN1CCC(NCc2cn(C)nc2-c2ccc(Oc3ccccc3)cc2)CC1
AC50 [28]: 8.35 µM (active)
IC50 [26]: 23.1 µM (active)
CC50 [29]: > 25 µM (active)
